Results on one compound are retold here after ChEMBL document CHEMBL2057148, “Synthesis of a Microcystis aeruginosa predicted metabolite with antimalarial activity” (Bioorg Med Chem Lett, 2012).

As a reminder, the IC50 is the concentration that gives 50% inhibition.

The structures appear in SMILES notation.

Experiment [1] deals with Plasmodium falciparum. The experiment is described as follows: Antimalarial activity against chloroquine-resistant Plasmodium falciparum K1 infected in human A-positive type erythrocytes assessed as [3H]hypoxanthine incorporation after 24 hrs by scintillation counting. The experiment is classed as functional, organism-based.
The subject of experiment [2] is Plasmodium falciparum. The experiment is described as follows: Ratio of IC50 for aerucyclamide B to compound IC50 for chloroquine-resistant Plasmodium falciparum K1 infected in human A-positive type erythrocytes assessed as [3H]hypoxanthine incorporation after 24 hrs by scintillation counting. The experiment is classed as functional.

Consider `CC[C@H](C)[C@@H]1NC(=O)c2csc(n2)[C@H]([C@@H](C)CC)NC(=O)c2csc(n2)CNC(=O)c2nc1oc2C` [MACROCYCLE], for which, in the experiment on Plasmodium falciparum [1], the IC50 amounted to 0.18 µM. Further, the “Ratio IC50” value with Plasmodium falciparum [2] was determined as 4.
